Source: paper PMC12072147, “Antioxidant and Neuroprotective Properties of Selected Pyrrole-Containing Azomethine Compounds in Neurotoxicity Models In Vitro” (International Journal of Molecular Sciences, 2025)

Experiments:
SH-SY5Y cells [1] = assay: In vitro cytotoxicity in neuroblastoma cell line SH-SY5Y (MTT); type: cell-based; conditions: Homo sapiens, 24 h treatment, 0.1-500 µM, read-out: IC50 (cell viability)
Method: (§1) The neuroblastoma cell line SH-SY5Y was acquired from Sigma-Aldrich (ACACC cell lines). They were cultured in Roswell Park Memorial Institute 1640 (RPMI) cell medium supplemented with 10% heat-inactivated fetal bovine serum (FBS) and 2 mM L-glutamine. The cells were maintained at 37 °C in an atmosphere containing 5% CO2 in a humidified incubator.
SH-SY5Y cells were seeded in 96-well plates at a density of 2.5 × 10^4 cells/well. The plates were incubated for 24 h to ensure proper attachment. Cell viability assays were performed after treatment with the test compounds at concentrations of 0.1, 1, 5, 10, 50, 100, 250, and 500 μM, according to the protocol of Mosmann (1984). Each compound was tested in 6 wells. Following the treatment for 24 h, a solution of (3-(4,5-dimethylthiazol-2-yl)-2,5-diphenyltetrazolium bromide) MTT at a concentration of 5 mg/mL was prepared and briefly vortexed. The culture medium was aspirated and replaced with 100 μL of MTT solution in each well. The plates were then incubated for 3 h. After incubation, the formazan crystals were dissolved using 100 μL dimethylsulphoxide (DMSO), and the absorbance was measured at 570 nm (690 nm for the background absorbance) using a multiple reader Synergy 2 (BioTek Instruments, Inc., Highland Park, Winooski, VT, USA).

[2] = test system: isolated rat brain microsomes; assay: In vitro toxicity (prooxidant effect, MDA) on isolated rat brain microsomes; type: biochemical; conditions: 100 µM, vs untreated control microsomes
Method: (§2) The brain was homogenized in 9 volumes of 0.1 M Tris buffer containing 0.1 mM dithiothreitol, 0.1 mM phenylmethylsulfonyl fluoride, 0.2 mM EDTA, 1.15% KCl, and 20% (v/v) glycerol (pH 7.4). The resulting homogenate was centrifuged twice at 17,000× g for 30 min. The supernatants from both centrifugation steps were combined and centrifuged twice at 100,000× g for 1 h. The pellet was then frozen in 0.1 M Tris buffer.
(§3) After incubating the microsomes with the substances and toxic agent, the reaction was stopped by adding 0.5 mL of 20% trichloroacetic acid, followed by 0.5 mL of 0.67% thiobarbituric acid. The reaction formed a colored complex between the malondialdehyde produced and thiobarbituric acid. The amount of malondialdehyde (MDA) was measured spectrophotometrically at 535 nm, using a molar extinction coefficient of 1.56 × 10^5 M^−1 cm^−1 for the calculation.

[3] = test system: isolated rat brain synaptosomes; assay: 6-OHDA-induced neurotoxicity in isolated rat brain synaptosomes; type: cell-based; conditions: for preserved GSH levels in synaptosomes / viability at 100 µM: 100 µM compound + 150 µM 6-OHDA; for preserved GSH levels in synaptosomes: compared to the 6-OHDA group; for viability at 100 µM: Rattus norvegicus, compared to 6-OHDA alone, read-out: preserved synaptosomal viability
Method: Synaptosomes and mitochondria were isolated by subcellular fractionation using a Percoll gradient, following the method described by Tauplin et al. and Sims et al.. Brain homogenate was prepared and centrifuged at 1000× g for 5 min at 4 °C. The supernatants were collected and centrifuged again at 1000× g for 5 min at 4 °C. The supernatants from both centrifugations were combined and distributed into four tubes. These tubes were then centrifuged at 10,000× g for 20 min at 4 °C three times. The final two centrifugations were performed to purify the synaptosomes and mitochondria.
The isolation process involves using a colloidal silicon solution, specifically Percoll. First, a 90% stock solution of Percoll is prepared. Next, Percoll solutions at concentrations of 16% and 10% are prepared, with 4 mL of each solution placed into six separate test tubes. To the precipitate from the final centrifugation step, 7.5% Percoll (derived from the 90% stock solution) is added. The tubes are then centrifuged at 15,000× g for 20 min at 4 °C. This procedure effectively isolates synaptosomes and mitochondria. After centrifugation, three distinct layers form in the tubes. The bottom layer contains mitochondria, the top layer contains lipids, and the middle layer—located at the 16% to 10% Percoll interface—contains synaptosomes. The corresponding layer from each tube is carefully removed using a glass Pasteur pipette and combined into one. Buffer B with glucose is then added to the mixture, which is centrifuged at 10,000 × g for 20 min at 4 °C, allowing the isolation buffer to be exchanged with the incubation buffer. After centrifugation, the pellet containing the synaptosomes is resuspended in Buffer B with glucose. Synaptosomes and mitochondria were incubated with the test substances at a concentration of 100 µM for 1 h.
This in vitro model mimics the neurodegenerative processes primarily observed in Parkinson’s disease (PD). The metabolism of 6-OHDA produces reactive quinones (p-quinone), which, in turn, generate reactive oxygen species (ROS). These reactive metabolites and ROS cause damage to both pre- and post-synaptic membranes, ultimately leading to neuronal cell damage. In this study, synaptosomes were incubated with 6-OHDA (150 μM) for 1 h to establish the model.
After a 1-h incubation with the substances and toxic agent, synaptosomes were centrifuged in a microcentrifuge at 15,000× g for 1 min. The pellet was gently mixed with Buffer B + glucose, and the supernatant containing 6-OHDA was discarded to prevent oxidation of 3-(4,5-dimethylthiazol-2-yl)-2,5-diphenyltetrazolium bromide, a tetrazole (MTT). The synaptosomes were centrifuged again at 15,000× g for 1 min. After the second wash, Buffer B + glucose was added to the pellet. Then, 60 µL of MTT solution was added to the “washed” synaptosomes. The plates were incubated with the MTT solution at 37 °C for 10 min. After incubation, the samples were centrifuged at 15,000× g for 2 min. The excess liquid was removed, and a DMSO solution was used to dissolve the formed formazan crystals. The amount of formazan was then measured spectrophotometrically at λ = 580 nm.
Following protein precipitation with trichloroacetic acid, the thiol groups in the supernatant were measured using DTNB, which produces a yellow-colored compound that absorbs light at λ = 412 nm. After incubation, synaptosomes were centrifuged at 4000× g for 3 min. The supernatant was removed, and the pellet was collected for GSH determination. The pellet was treated with 5% trichloroacetic acid and left on ice for 10 min. It was then centrifuged at 8000× g for 10 min at 2 °C. The supernatant was collected for GSH determination and frozen at −20 °C. Immediately before measurement, the samples were neutralized with 5N NaOH [50].

SH-SY5Y cells [4] = assay: H2O2-induced oxidative stress model in neuroblastoma SH-SY5Y cells; type: cell-based, human; conditions: H2O2 1 mM 10 min
Method: as §1
In the oxidative stress model, SH-SY5Y cells (3.5 × 10^4 cells/well) were exposed to 1 mM H2O2 for 10 min. The cells were pre-treated for 1.5 h with the test compounds (0.1, 1, 5, 10, 20, and 50 µM). Subsequently, a H2O2 solution was added. Cell viability was assessed after 24 h by the MTT-dye reduction assay, as described above.
The results of the experiments performed on isolated brain synaptosomes, mitochondria, and microsomes were statistically processed using the ‘MEDCALC’ program using the non-parametric Mann–Whitney method at significance levels of p < 0.05, p < 0.01, and p < 0.001. Statistical analyses with the SH-SY5Y cell line were conducted on GraphPad Prism software (version 8, GraphPad Software, La Jolla, CA, USA). The significance of the data was assessed using one-way analysis of variance (ANOVA), followed by Dunnet’s test for post hoc multiple comparisons, to evaluate statistical differences. Values of * p ≤ 0.05, ** p ≤ 0.01, and *** p ≤ 0.001 were considered statistically significant. Cytoprotecting data were normalized as a percentage of the H2O2-treated control (defined as 0% viability). Statistical analysis was performed to compare the different groups of compounds. Statistical significance was determined using the Holm–Sidak method, with alpha = 0.05. Each row was analyzed individually, without assuming a consistent SD.

[5] = test system: isolated rat brain microsomes; assay: Non-enzyme (Fe2+/AA) lipid peroxidation in isolated rat brain microsomes; type: biochemical; conditions: 100 µM compound co-incubated with Fe2+/AA, compared to the Fe2+/AA group
Method: as §2
Non-enzyme-induced lipid peroxidation was induced with 20 μM ferrous sulfate solution and 0.5 mM ascorbic acid solution [54].
as §3

[6] = test system: isolated brain mitochondria; assay: t-BuOOH-induced oxidative stress in brain mitochondria; conditions: 100 µM compound + t-BuOOH, compared to t-BuOOH alone
[7] = 150 µM applied alone, vs untreated synaptosomes

| SMILES | IC50 (SH-SY5Y cells [1]) [µM] | increase in MDA formation in microsomes [2] [%] | preserved GSH levels in synaptosomes [3] [%] | viability at 100 µM [3] [%] | protective effect (neuroprotection) (SH-SY5Y cells [4]; 5 µM pre-treatment 1.5 h) [%] | protective effect (neuroprotection) (SH-SY5Y cells [4]; 10 µM pre-treatment 1.5 h) [%] | decrease of MDA production in microsomes [5] [%] | reduction of MDA production in mitochondria [6] [%] | protective effect (neuroprotection) (SH-SY5Y cells [4]; 20 µM pre-treatment 1.5 h) [%] | protective effect (neuroprotection) (SH-SY5Y cells [4]; 50 µM pre-treatment 1.5 h) [%] | decrease in synaptosomal viability by toxic agent alone [3, 7] [%] | reduction in GSH levels by toxic agent alone [3, 7] [%] |
| --- | --- | --- | --- | --- | --- | --- | --- | --- | --- | --- | --- | --- |
| CCOC(=O)c1cc(-c2ccc(Br)cc2)n(C(Cc2c[nH]c3ccccc23)C(=O)N/N=C/c2ccc3ccccc3c2)c1C (centres unmarked) [compound 14] | > 500 | 39 | 70 | 60 | 33 | 51 | 37 | – | – | – | – | – |
| CCOC(=O)c1cc(-c2ccc(Br)cc2)n(C(Cc2c[nH]c3ccccc23)C(=O)N/N=C/c2ccc([N+](=O)[O-])o2)c1C (centres unmarked) [compound 11] | 264 | 41 | 60 | 69 | – | – | 35 | 41 | – | – | – | – |
| CCOC(=O)c1cc(-c2ccc(Br)cc2)n(C(Cc2c[nH]c3ccccc23)C(=O)N/N=C/c2ccccc2O)c1C (centres unmarked) [compound 12] | > 500 | 35 | 80 | 82 | 48 | 53 | 40 | – | 50 | 32 | – | – |
| CCOC(=O)c1cc(-c2ccc(Br)cc2)n(C(Cc2c[nH]c3ccccc23)C(=O)N/N=C/c2c3ccccc3cc3ccccc23)c1C (centres unmarked) [compound 15] | > 500 | 40 | 70 | 64 | – | – | 36 | – | – | – | – | – |
| NCCc1cc(O)c(O)cc1O [6-OHDA, 6-hydroxydopamine, reference compound] | – | – | – | – | – | – | – | – | – | – | 55 | 50 |
| CCOC(=O)c1cc(-c2ccc(Br)cc2)n(C(Cc2c[nH]c3ccccc23)C(=O)N/N=C/c2cc(OC)c(O)c(OC)c2)c1C (centres unmarked) [compound 7] | > 500 | 29 | 70 | 73 | – | – | 38 | – | – | – | – | – |
| CCOC(=O)c1cc(-c2ccc(Br)cc2)n(C(Cc2c[nH]c3ccccc23)C(=O)N/N=C/c2ccc(NC(C)=O)cc2)c1C (centres unmarked) [compound 9] | > 500 | 38 | 60 | 78 | 47 | 52 | 26 | – | – | – | – | – |
